Key:
Phakopsora pachyrhizi = Phakopsora pachyrhizi / soybean / leaf disc preventative (Asian soybean rust); type: in vivo; conditions: foliar, 200 ppm in the applied formulation, soybean leaf disks, inoculated one day after application, compared to untreated, assessed 12 to 14 days after application, read-out: disease control
Protocol: Leaf disks or leaf segments of various plant species are cut from plants grown in a greenhouse. The cut leaf disks or segments are placed in multiwell plates (24-well format) onto water agar. The leaf disks are sprayed with a test solution before (preventative) or after (curative) inoculation. Compounds to be tested are prepared as DMSO solutions (max. 10 mg/ml) which are diluted to the appropriate concentration with 0.025% Tween20 just before spraying. The inoculated leaf disks or segments are incubated under defined conditions (temperature, relative humidity, light, etc.) according to the respective test system. A single evaluation of disease level is carried out 3 to 14 days after inoculation, depending on the pathosystem. Percent disease control relative to the untreated check leaf disks or segments is then calculated.
Soybean leaf disks are placed on water agar in multiwell plates (24-well format) and sprayed with the formulated test compound diluted in water. One day after application leaf discs are inoculated by spraying a spore suspension on the lower leaf surface. After an incubation period in a climate cabinet of 24-36 hours in darkness at 20° C. and 75% rh leaf disc are kept at 20° C. with 12 h light/day and 75% rh. The activity of a compound is assessed as percent disease control compared to untreated when an appropriate level of disease damage appears in untreated check leaf disks (12 to 14 days after application).
The following compounds at 200 ppm in the applied formulation give at least 80% disease control in this test when compared to untreated control leaf disks under the same conditions, which show extensive disease development.

[1] = tested on: Puccinia recondita f. sp. Tritici; assay: Puccinia recondita f. sp. tritici / wheat / leaf disc curative (brown rust); type: in vivo; conditions: foliar, 200 ppm in the applied formulation, wheat leaf segments cv. Kanzler, applied 1 day after inoculation, compared to untreated, assessed 6 to 8 days after application, read-out: disease control
In short: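 Curative test: wheat leaf segments cv. Kanzler on agar inoculated with spore suspension, kept dark at 19 °C/75% RH, then sprayed 1 day post-inoculation with compound diluted in water. Incubated at 19 °C, 75% RH, 12 h light/dark; percent disease control versus untreated scored 6–8 days after application.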

[2] = tested on: Puccinia recondita f. sp. Tritici; assay: Puccinia recondita f. sp. tritici / wheat / leaf disc preventative (brown rust); type: in vivo; conditions: foliar, 200 ppm in the applied formulation, wheat leaf segments cv. Kanzler, inoculated 1 day after application, compared to untreated, assessed 7 to 9 days after application, read-out: disease control
In short: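 Sprayed at 200 ppm one day ahead of spore inoculation, wheat leaf segments of cultivar Kanzler sat on agar under 19° C., 75% relative humidity and alternating 12-hour light and dark. Efficacy was taken as percent disease control relative to untreated segments after 7 to 9 days.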

[3] = tested on: Glomerella lagenarium (Colletotrichum lagenarium); assay: Glomerella lagenarium (Colletotrichum lagenarium) liquid culture / cucumber / preventative (anthracnose); type: cell-based; conditions: Colletotrichum orbiculare; 20 ppm in the applied formulation; conidia in PDB nutrient broth, 24° C.; 3 to 4 days after application; compared to untreated; read-out: disease control (inhibition of growth measured photometrically)
In short: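 Cryostored conidia in potato dextrose broth added to compound diluted from DMSO solution, 96-well format. Plates incubated at 24 °C. Growth inhibition read photometrically 3 to 4 days after application, as percent activity versus untreated check.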

Row | melting point [°C] | Structure (SMILES) | pest or weed control at 200 ppm (Phakopsora pachyrhizi) [%] | pest or weed control at 200 ppm [1] [%] | pest or weed control at 200 ppm [2] [%] | inhibition at 20 ppm [3] [%]
1 | 86 to 88 | CCS(=O)(=O)N(Cc1ccc(-c2noc(C(F)(F)F)n2)cc1)C1CC1 [Compound 1.1, N-cyclopropyl-N-[[4-[5-(trifluoromethyl)-1,2,4-oxadiazol-3-yl]phenyl]methyl] ethanesulfonamide] | ≥ 80 | ≥ 80 | ≥ 80 | ≥ 80
2 | 102 to 105 | CN(Cc1ccc(-c2noc(C(F)(F)F)n2)cc1)S(=O)(=O)C1CC1 [Compound 1.10, N-methyl-N-[[4-[5-(trifluoromethyl)-1,2,4-oxadiazol-3-yl]phenyl]methyl] cyclopropanesulfonamide] | ≥ 80 | ≥ 80 | ≥ 80 | ≥ 80
3 | 103 to 105 | CN(Cc1ccc(-c2noc(C(F)(F)F)n2)cc1)S(C)(=O)=O [Compound 1.11, N-methyl-N-[[4-[5-(trifluoromethyl)-1,2,4-oxadiazol-3-yl]phenyl]methyl] methanesulfonamide] | ≥ 80 | ≥ 80 | ≥ 80 | ≥ 80
4 | 127 to 129 | CCS(=O)(=O)NCc1ccc(-c2noc(C(F)(F)F)n2)cc1 [Compound 2.2, N-[[4-[5-(trifluoromethyl)-1,2,4-oxadiazol-3-yl]phenyl]methyl] ethanesulfon-amide] | ≥ 80 | ≥ 80 | ≥ 80 | ≥ 80
5 | 140 to 144 | O=S(=O)(CC1CC1)NCc1ccc(-c2noc(C(F)(F)F)n2)cc1 [Compound 3.3, 1-cyclopropyl-N-[[4-[5-(trifluoromethyl)-1,2,4-oxadiazol-3-yl]phenyl]methyl] methanesulfonamide] | ≥ 80 | ≥ 80 | ≥ 80 | ≥ 80
6 | 97 to 100 | COCCS(=O)(=O)NCc1ccc(-c2noc(C(F)(F)F)n2)cc1 [Compound 2.1, 2-methoxy-N-[[4-[5-(trifluoromethyl)-1,2,4-oxadiazol-3-yl]phenyl]methyl] ethanesulfon-amide] | ≥ 80 | ≥ 80 | ≥ 80 | ≥ 80
7 | 117 to 122 | O=S(=O)(CC1CCOC1)NCc1ccc(-c2noc(C(F)(F)F)n2)cc1 (stereo not shown) [Compound 3.4, 1-tetrahydrofuran-3-yl-N-[[4-[5-(trifluoromethyl)-1,2,4-oxadiazol-3-yl]phenyl]methyl] methanesulfonamide] | ≥ 80 | ≥ 80 | ≥ 80 | ≥ 80
8 | 77 to 79 | CN(C)S(=O)(=O)N(C)Cc1ccc(-c2noc(C(F)(F)F)n2)cc1 [Compound 1.12, N-(dimethylsulfamoyl)-N-methyl-1-[4-[5-(trifluoromethyl)-1,2,4-oxadiazol-3-yl]phenyl] methanamine] | ≥ 80 | ≥ 80 | ≥ 80 | ≥ 80

Reference: patent US20210101874A1, “MICROBIOCIDAL OXADIAZOLE DERIVATIVES” (SYNGENTA PARTICIPATIONS AG, priority 2017, published 2021)
